According to patent US11357819B2, “Cytocidal agent” (FUJITA ACADEMY, priority 2017, dated 2022):
“Also recorded” adds a separate entry of the source. Like-named read-outs stand apart in the source and are kept apart here. Where a SMILES comes first, the peptide text is derived from it. [ ]: non-standard residue; d: D form.

Columns and labels:
[1] = in vivo
Protocol: A weight of each mouse was measured before being died of bleeding.
As a result, in the control group into which a peptide was not administered (n=8), the number of dead individuals after 24 days from transplanting the A431-CNGB3-myc cells into the peritoneal cavity was 1, and the alive rate was […]. With respect to this, in a group into which the IF7 (RR)−(K+H) peptide was administered such that the IF7 (RR)−(K+H) peptide was 10 μg/body/day or 50 μg/body (n=6), the alive rate was 100%. In addition, at the time of the end of the test, the spread of cancer cells (A431-CNGB3-myc cells) in the peritoneal cavity of all mice was examined.

A431-CNGB3-myc cells = assay: Cytocidal activity by ATP amount (CellTiter-Glo luminescence) in peptide-treated A431-CNGB3-myc cells; format: cell-based, human; conditions: for cytocidal activity (relative ATP amount %): Example 6, A431-CNGB3-myc cells, 2.34 to 300.0 μM, FIG. 10
Protocol: A transformed cell (A431-CNGB3-myc cell) obtained by introducing a gene encoding human CNGB3, in which an myc tag was fused in a C-terminal, into an A431 cell (human epithelial-like cell cancer-derived cell strain) and forcibly expressing thereof was prepared as an endometriosis model cell.
Culturing of the A431-CNGB3-myc cell was performed at 37° C. in a 5 volume % carbon dioxide environment using a medium in which 10% of inactivated FBS (bovine fetal serum, manufactured by Corning Corporation) and 1% of penicillin-streptomycin (manufactured by Invitrogen Corporation) were contained in a DMEM High Glucose medium (manufactured by GIBCO Corporation), as a culture medium. Passage was performed every two or three days.
The cytocidal activity of each peptide was evaluated by measuring an ATP amount in A431-CNGB3-myc cells treated with each peptide using CellTiter-Glo (registered trademark) assay kit (manufactured by Promega).
Specifically, first, A431-CNGB3-myc cells after 2 passages were disseminated into a 96-well plate (manufactured by Corning/Costar, Lot No. 00515003) so as to be 1×10^4 cells/well by preparing the concentration of the cells. After culturing for 2 days after the dissemination, each peptide was added to each well such that a final concentration was […], 75, or 150 μM, respectively, and cultured for 24 hours. Thereafter, the culture supernatant was removed from each well, and CellTiter-Glo buffer was added to the remaining cells, and after homogenization, the supernatant was recovered by centrifugation and used as a lysate. A double quantity of PBS and a 2×CellTiterGlo Reagent of the equivalent amount of the lysate were added to the lysate and stirred to obtain a reaction solution, and the reaction solution was stood at room temperature for 10 minutes. The luminescence intensity (Luminescence) (RLU: RELATIVE LIGHT UNITS) of the reaction solution after standing at room temperature was measured using a Synergy H1 hybrid multi-mode microplate reader (manufactured by BioTek Corporation). The luminescence intensity of the reaction solution is an indicator of the amount of ATP. It is shown that the smaller the luminescence intensity of the reaction solution is, the amount of ATP is small, and the cytocidal activity of the administered peptide is strong. All trials were measured in triplicate and the average was evaluated as the cytocidal activity at the concentration of each peptide.
The final concentration of each peptide added to the A431-CNGB3-myc cells disseminated into the 96-well plate was set to be 2.34, 4.69, 9.38, 18.8, 37.5, 75, or 150 μM, and the cytocidal activity of each peptide was evaluated in the same manner as that of Reference Example 1, except that the culture time after addition of the peptide was set to 20 hours. In the evaluation of the cytocidal activity against the A431-CNGB3-myc cells of each peptide, the measurement result of the fluorescence intensity (RLU) of each reaction solution is shown in FIG. 2. In the figure, “1” to “16” show the result of the reaction solution to which peptides 1 to 16 of Table 2 were added, respectively.
The cytocidal activity of each peptide was evaluated in the same manner as that of Example 1, except that the final concentration of each peptide added to each cell disseminated into the 96-well plate was set to be 0 (peptide non-added), 2.34, 4.69, 9.38, 18.8, 37.5, 75.0, 150.0, or 300.0 μM. A relative fluorescence intensity (%) of each reaction solution in a case Where the fluorescence intensity (RLU) of the reaction solution to which no peptide was added was set to 100% was calculated as a relative ATP amount (%). […]

[2] = system: Ishikawa, SNG-II, Hec-1A and RL95-2 cells (cell strains derived from a uterine cancer cell); assay: Cytocidal activity by relative ATP amount (CellTiter-Glo) in cell strains derived from uterine cancer cells; format: cell-based, human; conditions: Example 6, 2.34 to 300.0 μM, 20 hours, FIGS. 11 to 14
Protocol: As the cancer-derived cell strain, an Ishikawa cell derived from human endometrium gland cancer, an SNG-II cell derived from human endometrium cancer, an Hec-1A cell derived from human uterine body cancer, and a RL95-2 cell derived from human endometrium cancer were used. The cells were cultured in the same manner as the A431-CNG133-myc cells.
The cytocidal activity of each peptide was evaluated in the same manner as that of Example 1, except that the final concentration of each peptide added to each cell disseminated into the 96-well plate was set to be 0 (peptide non-added), 2.34, 4.69, 9.38, 18.8, 37.5, 75.0, 150.0, or 300.0 μM. A relative fluorescence intensity (%) of each reaction solution in a case Where the fluorescence intensity (RLU) of the reaction solution to which no peptide was added was set to 100% was calculated as a relative ATP amount (%). In the figure, the “14D−Z13+5D−Z13” represents a relative ATP amount of the reaction solution to which both of a peptide A2-1 and a peptide A2-2 were added, the “14D−Z13” represents a relative ATP amount of the reaction solution to which only the peptide A2-1 was added, the “5D−Z13” represents a relative ATP amount of the reaction solution to Which only the peptide A2-2 was added, and the “14D−5D−Z13” represents a relative ATP amount (%) of the reaction solution to which only the peptide A2 was added, respectively.

[3] = Example 1, peptide 2.34 to 150 μM, 20 hours, FIG. 2
[4] = Reference Example 1, peptide 35.5, 75 or 150 μM, 24 hours, FIG. 1

## CC[C@H](C)[C@H](N)C(=O)N[C@@H](Cc1ccccc1)C(=O)N[C@@H](CC(C)C)C(=O)N[C@@H](CC(C)C)C(=O)N[C@@H](Cc1c[nH]c2ccccc12)C(=O)N[C@@H](CCC(N)=O)C(=O)N[C@@H](CCCNC(=N)N)C(=O)N[C@@H](CCCNC(=N)N)C(=O)N[C@@H](CCCNC(=N)N)C(=O)N[C@H](CCCCN)C(=O)N[C@H](CC(C)C)C(=O)N[C@H](C)C(=O)N[C@H](CCCCN)C(=O)N[C@H](CC(C)C)C(=O)N[C@H](C)C(=O)N[C@H](CCCCN)C(=O)N[C@H](CCCCN)C(=O)N[C@H](CC(C)C)C(=O)N[C@H](C)C(=O)N[C@H](CCCCN)C(=O)N[C@H](CC(C)C)C(=O)N[C@H](C)C(=O)N[C@H](CCCCN)C(=O)N[C@H](Cc1c[nH]cn1)C(=O)N[C@H](CC(C)C)C(=O)N[C@H](C)C(=O)N[C@H](Cc1c[nH]cn1)C(=O)N[C@H](CC(C)C)C(=O)O [IF7 (RR)−(K+H) peptide, IFLLWQR-RR-KLAKLAK-KLAKLAK-HLAHL] (H-IFLLWQRRR[dK][dL][dA][dK][dL][dA][dK][dK][dL][dA][dK][dL][dA][dK][dH][dL][dA][dH][dL]-OH)
[1]
  weight of each mouse: no particular change

## CC(C)C[C@@H](NC(=O)[C@H](N)CCCCN)C(=O)N[C@H](C)C(=O)N[C@H](CCCCN)C(=O)N[C@H](CC(C)C)C(=O)N[C@H](C)C(=O)N[C@H](CCCCN)C(=O)N[C@H](CCCCN)C(=O)N[C@H](CC(C)C)C(=O)N[C@H](C)C(=O)N[C@H](CCCCN)C(=O)N[C@H](CC(C)C)C(=O)N[C@H](C)C(=O)N[C@H](CCCCN)C(=O)N[C@H](Cc1c[nH]cn1)C(=O)N[C@H](CC(C)C)C(=O)N[C@H](C)C(=O)N[C@H](Cc1c[nH]cn1)C(=O)N[C@H](CC(C)C)C(=O)N[C@H](C(=O)N[C@@H](CCCNC(=N)N)C(=O)N[C@@H](CCCNC(=N)N)C(=O)N[C@@H](C)C(=O)N[C@@H](CC(=O)O)C(=O)N[C@@H](CC(N)=O)C(=O)N[C@@H](CCCNC(=N)N)C(=O)N1CCC[C@H]1C(=O)NCC(=O)O)C(C)C [Peptide A2, KLAKLAK-KLAKLAK-HLAHL-VRRADNRPG] (H-[dK][dL][dA][dK][dL][dA][dK][dK][dL][dA][dK][dL][dA][dK][dH][dL][dA][dH][dL]VRRADNRPG-OH)
[1]; ip
  weight of each mouse: no particular change

## HLAHL-VRRADNRPG (HLAHLVRRADNRPG; KLAK(14)-HLAH(5)-Z13 peptide) [Peptide A2-2]
A431-CNGB3-myc cells; 20 hours
  cytocidal activity (relative ATP amount %): hardly observed or significantly weak
[2]
  cytocidal activity (relative ATP amount %): hardly observed or significantly weak

## HLAHLAH-HLAHLAH-KLAKLAK-VRRADNRPG (HLAHLAHHLAHLAHKLAKLAKVRRADNRPG; HLAH(14)-KLAK(13)-Z13 peptide) [Peptide 16]
A431-CNGB3-myc cells; [3]
  cytocidal activity, comparison between peptides: stronger cytocidal activity than the longest peptide 9

## KLAKLAK-KLAKLAK-HLAHLAH-HLAHLAH-VRRADNRPG (KLAKLAKKLAKLAKHLAHLAHHLAHLAHVRRADNRPG; D-residues) [WT]
A431-CNGB3-myc cells; [4]
  cytocidal activity (luminescence intensity RLU, indicator of ATP amount): concentration-dependent cytocidal activity
  cytocidal activity, comparison between peptides: stronger cytocidal activity than the peptide D5E

## KLAKLAK-KLAKLAK-HLAHLAH-HLAHLAH-VRRAENRPG (KLAKLAKKLAKLAKHLAHLAHHLAHLAHVRRAENRPG; KLAK(14)-HLAH(14)-D5E peptide) [Peptide D5E]
A431-CNGB3-myc cells; [4]
  cytocidal activity (luminescence intensity RLU, indicator of ATP amount): concentration-dependent cytocidal activity

## KLAKLAK-KLAKLAK-HLAHLAH-VRRADNRPG (KLAKLAKKLAKLAKHLAHLAHVRRADNRPG; KLAK(14)-HLAH(7)-Z13 peptide) [Peptide 8]
A431-CNGB3-myc cells; [3]
  cytocidal activity, comparison between peptides: stronger cytocidal activity than the longest peptide 1; also recorded: strongest cytocidal activity

## KLAKLAK-KLAKLAK-VRRADNRPG (KLAKLAKKLAKLAKVRRADNRPG; KLAK(14D)-Z13 peptide) [Peptide A2-1]
A431-CNGB3-myc cells; 20 hours
  cytocidal activity (relative ATP amount %): hardly observed or significantly weak
[2]
  cytocidal activity (relative ATP amount %): hardly observed or significantly weak
